In patent US20240122179A1, “AUXINIC HERBICIDES AND METHODS OF USE THEREOF” (CORTEVA AGRISCIENCE LLC, priority 2021, published 2024):
Where two headings read alike, the source gives them in different places.

Legend:
[1] = test system: Amaranthus rudis (AMATA); assay: Postemergence herbicide evaluation, percent reduction in plant size vs untreated control, 21 days after treatment; assay type: in vivo, Amaranthus rudis (tall water hemp); conditions: Amaranthus tuberculatus, post-emergence, 504 h, AMATA, postemergence, read-out: Control/Injury; for pest or weed control at 140 g/ha: rate 140 g ae/ha; for pest or weed control at 280 g/ha: rate 280 g ae/ha
Method in brief: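 Growth-reduction values are percent decrease in plant size relative to untreated plants, scored 21 days post-application. Amaranthus rudis (2-8 leaves) received postemergence sprays at 140 or 280 g ae/ha, 187 L/ha, in a mixed acetone/DMSO/water/isopropanol carrier with crop oil concentrate. Greenhouse conditions were 25-28° C, 50-60% RH; 3-4 randomized replicates.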

[2] = test system: Ambrosia artemisiifolia (AMBEL); assay: as above; assay type: in vivo, Ambrosia artemisiifolia (common ragweed); conditions: post-emergence, 504 h, AMBEL, postemergence, read-out: Control/Injury; for pest or weed control at 140 g/ha: rate 140 g ae/ha; for pest or weed control at 280 g/ha: rate 280 g ae/ha
Method in brief: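 Test compounds at 140 or 280 g ae/ha were applied by track sprayer (187 L/ha, spray solution containing acetone/DMSO, isopropanol, crop oil, surfactant) to 2–8 leaf plants, 3–4 replicates. Plants were kept in a greenhouse at 25–28 °C. Size reduction was scored against untreated controls at 21 days.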

[3] = test system: Kochia scoparia (KCHSC); assay: as above; assay type: in vivo; conditions: Bassia scoparia, post-emergence, 504 h, KCHSC, postemergence, read-out: Control/Injury; for pest or weed control at 140 g/ha: rate 140 g ae/ha; for pest or weed control at 280 g/ha: rate 280 g ae/ha
Method in brief: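 Values are percent reduction in plant size against an untreated control, measured 21 days after a single postemergence spray at 140 or 280 g ae/ha (187 L/ha, 276 kPa). Treatments used 3-4 randomized complete-block replicates on 2 to 8 leaf-stage plants kept in a 25-28 °C greenhouse, with compounds in acetone/DMSO-based solvent containing crop oil and surfactant.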

[4] = test system: Amaranthus palmeri (AMAPA); assay: as above; assay type: in vivo, Amaranthus palmeri (Palmer amaranth); conditions: post-emergence, 504 h, postemergence, read-out: Control/Injury; for pest or weed control at 140 g/ha: rate 140 g ae/ha; for pest or weed control at 280 g/ha: rate 280 g ae/ha
Method in brief: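 Percent reduction in plant size relative to untreated plants, measured 21 days after track-sprayer application (187 L/ha) of 140 or 280 g ae/ha to Amaranthus palmeri at the 2 to 8 leaf stage. Randomized complete block, 3 or 4 replicates, greenhouse at 25 to 28° C; spray solution acetone/DMSO with isopropanol, water and crop oil concentrate.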

[5] = test system: Conyza canadensis (L.) (ERICA); assay: as above; assay type: in vivo, Conyza canadensis (L.) (Horseweed); conditions: Erigeron canadensis, post-emergence, 504 h, ERICA, postemergence, read-out: Control/Injury; for pest or weed control at 140 g/ha: rate 140 g ae/ha; for pest or weed control at 280 g/ha: rate 280 g ae/ha
Method in brief: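 Track-sprayer applications (187 L/ha, 276 kPa) of 140 or 280 g ae/ha, technical material dissolved in acetone/DMSO then diluted with crop oil and surfactant-containing solvent, to greenhouse Conyza canadensis at 2-8 leaves. After 21 days, size reduction relative to untreated plants was recorded; 3-4 randomized replicates.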

[6] = test system: Glycine max; assay: whole plant or invertebrate; conditions: for plant injury at 140 g/ha / plant injury at 280 g/ha: Glycine max, post-emergence, 504 h, read-out: Control/Injury; for Control/Injury: in vivo
Experimental: Plants were grown in a soil media composed of 90% by volume Promix BX (Premier Tech Horticulture, Quakertown, PA) and 10% Profile Greens Grade (Profile Products LLC, Buffalo Grove, IL). Promix BX contains approximately 83% Sphagnum Peat Moss, 13% Perlite, 5% vermiculite, and proprietary amounts of limestone, starter fertilizer, and wetting agent. Profile Greens Grade is a sand-sized granule formed from calcining illite and montmorillonite clay. Several seeds of each species were planted in 10 cm square pots and top watered twice daily. Plant material was propagated in a warm greenhouse with temperature ranging from 25 to 28° C. and 50 to 60% relative humidity at the Corteva Global Headquarters (Indianapolis, Indiana, USA). Natural light was supplemented with 1000-watt metal halide overhead lamps with an average illumination of 500 μE m^−2 s^−1 photosynthetic active radiation for 16 consecutive hours each day. Plants were top-watered prior to herbicide application and sub-watered after herbicide application.
Appropriate amounts of test materials were weighed out into glass vials in their technical form to deliver either 140 or 280 g acid equivalent (ae)/ha. The samples were dissolved in 3 ml of Solvent 1. Solvent 1 is 97% acetone and 3% dimethyl sulfoxide and serves as a general-purpose solvent (GPS) for dissolving technical materials. […] The samples were then diluted to their final concentration using 17 ml of solvent 2 for a total of 20 ml of spray solution. Solvent 2 contains 41.58% GPS, 45.53% water, 11.88% isopropyl alcohol, 0.99% crop oil concentrate and 0.02% Trition X-155 surfactant. All percentages are listed on a volume basis. Dicamba diglycolamine was applied as a formulated herbicide, Clarity™ and diluted with solvent 2 to compare all materials in the same spray solution.
Herbicide applications were made to 3 to 4 replicates of each plant species at the 2 to 8 leaf stage, depending on the species. Treatments were applied with a research track-sprayer (Generation III Research Sprayer manufactured by DeVries Manufacturing in Hollandale, MN, USA) calibrated to deliver a spray volume of 187 L/ha. The track-sprayer was fitted with an 8003E nozzle from Spray Systems Company (North Avenue and Schmale Road, P.O. Box 7900, Wheaton, IL 60187), and used a spray pressure of 276 kPa pressure and a speed of 3.1 km/h. The nozzle height was 46 cm above the plant canopy. The experimental design used for the trials was a randomized complete block with 3 or 4 replications per treatment. After application, plants were placed on carts according to the randomization and returned to the greenhouse. Plants were sub-watered after treatment with Indianapolis city water or fertilized three times a week with a commercial fertilizer solution (Jack's Professional 15-5-15 4 Ca 2 Mg fertilizer (manufactured by JR PETERS INC., 6656 Grant Way, Allentown, PA 18106; www.jrpeters.com). Percent visual control assessments were made on a scale of 0 to 100% (where 0 was no control and 100 was complete plant death) at 7, 14, and 21 days after treatment.
In conformity with the methods outlined in Example 49, the effect of representative experimental compounds on the growth of Glycine max was determined at 2 different levels (respectively, 140 and 280 g acid equivalent (ae)/ha) of the experimental actives tested. Plants were treated with one of the compounds, a control plant was not treated. Twenty-one days after treatment, the plants were measured. The data is present as a percent reduction in plant size relative to the untreated control.

[7] = R-AMAPA, percent reduction vs untreated control, 21 days after treatment
[8] = percent reduction vs untreated control, 21 days after treatment
[9] = percent reduction vs untreated, 21 days after treatment

| Compound | pest or weed control at 140 g/ha [1] [%] | pest or weed control at 280 g/ha [1] [%] | pest or weed control at 140 g/ha [2] [%] | pest or weed control at 280 g/ha [2] [%] | pest or weed control at 140 g/ha [3] [%] | pest or weed control at 280 g/ha [3] [%] | pest or weed control at 140 g/ha [4, 7] [%] | pest or weed control at 280 g/ha [4, 7] [%] | pest or weed control at 140 g/ha [5, 8] [%] | pest or weed control at 280 g/ha [5, 8] [%] | plant injury at 140 g/ha [6] [%] | plant injury at 280 g/ha [6] [%] | Control/Injury [6] | other results |
| --- | --- | --- | --- | --- | --- | --- | --- | --- | --- | --- | --- | --- | --- | --- |
| COc1c(Cl)ccc(Cl)c1C(=O)ON1C(=O)c2ccccc2C1=O [Compound A-74] | 70 | 90 | 77 | 88 | 94 | 97 | 68 | 85 | 70 | 83 | 2 | 3 | – | – |
| COc1c(Cl)ccc(Cl)c1C(=O)NS(=O)(=O)c1nccn1C [Compound A-79] | 7 | 13 | 15 | 22 | – | – | 13 | 10 | 0 | 2 | 6 | 3 | – | pest or weed control at 140 g/ha [3, 8]: 0%; pest or weed control at 280 g/ha [3, 8]: 3% |
| COc1c(Cl)ccc(Cl)c1C(=O)Nc1ncccn1 [Compound A-62] | 65 | 76 | 83 | 87 | 77 | 90 | 73 | 92 | 82 | 93 | – | – | 3 | – |
| COc1c(Cl)ccc(Cl)c1C(=O)Nc1ccc(Cl)cc1 [Compound A-77] | 83 | 85 | 67 | 77 | 96 | 93 | 82 | 78 | 40 | 68 | 8 | 8 | – | – |
| COc1c(Cl)ccc(Cl)c1C(=O)Oc1ccc(Cl)cc1 [Compound A-76] | 68 | 67 | 80 | 83 | 83 | 87 | 55 | 65 | 68 | 55 | 4 | 4 | – | – |
| COc1c(Cl)ccc(Cl)c1C(=O)Oc1cncnc1 [Compound A-66] | 0 | 2 | 15 | 15 | 0 | 0 | 13 | 5 | 0 | 2 | – | – | 3 | – |
| COc1c(Cl)ccc(Cl)c1C(=O)Oc1cc(C(F)(F)F)n(C)n1 [Compound A-118] | 68 | 80 | 80 | 97 | – | – | – | – | – | – | – | – | 8 | pest or weed control at 140 g/ha [3, 9]: 83%; pest or weed control at 280 g/ha [3, 9]: 99%; pest or weed control at 140 g/ha ([4]; AMAPA): 63%; pest or weed control at 280 g/ha ([4]; AMAPA): 73%; pest or weed control at 140 g/ha [5]: 93%; pest or weed control at 280 g/ha [5]: 96% |
| CCO/C(C)=N\OC(=O)c1c(Cl)ccc(Cl)c1OC [Compound A-93] | 60 | 75 | 68 | 90 | – | – | 68 | 80 | 63 | 80 | 10 | 5 | – | pest or weed control at 140 g/ha [3, 8]: 77%; pest or weed control at 280 g/ha [3, 8]: 93% |
| COc1c(Cl)ccc(Cl)c1C(=O)N1C(=O)C(=O)c2ccccc21 [Compound A-116] | 5 | 33 | 3 | 10 | – | – | – | – | – | – | – | – | 2 | pest or weed control at 140 g/ha [3, 9]: 0%; pest or weed control at 280 g/ha [3, 9]: 5%; pest or weed control at 140 g/ha ([4]; AMAPA): 8%; pest or weed control at 280 g/ha ([4]; AMAPA): 30%; pest or weed control at 140 g/ha [5]: 3%; pest or weed control at 280 g/ha [5]: 5% |
